Earlier results on 45 compounds are cited in PMC5571359, “Screening the Medicines for Malaria Venture Pathogen Box across Multiple Pathogens Reclassifies Starting Points for Open-Source Drug Discovery” (Antimicrobial Agents and Chemotherapy, 2017).

The test system of this data set is P. falciparum ABS. The settings on record: cited from earlier work; for EC50: ChEMBL Data; for IC50: read-out: Pf 3D7 Pbox IC50.
The mark [1] stands for this setting: TCMDC, read-out: TCMDC (ref 93) EX50.
Setting [2] is: Pf 3D7, ref Pathogen Box supporting information.
Setting [3] is: NITD, read-out: NITD (ref 94) EC50.
Where [4] appears, read: P. falciparum 3D7, ref PBox supporting information.
[5] abbreviates: P. falciparum, read-out: NITD (ref 94) EC50.
Where [6] appears, read: P. falciparum, read-out: TCMDC (ref 93) EX50.

Each structure is given as a SMILES string. Where two headings read alike, the source gives them in different places. Where only a bound is given, the exact number is not on record here.

With `CC(C)NCC(=O)Nc1cccc(C(=O)Nc2cccc(C(F)(F)F)c2)c1` [MMV020165], the EC50 under setting [1] was 0.27 µM. Moreover, the IC50 (commonly the concentration that inhibits the measured activity by half) under setting [2] is 0.35 µM.

For `COc1ccc(CCN2CCC(NCc3cccc(N(C)C)c3)CC2)cc1` [MMV011511], the EC50 reads like this: under setting [3], 0.81 µM; under setting [1], 1.32 µM. Also, the IC50 under setting [2] was 1.2 µM.

With `FC(F)(F)c1cnc(Sc2nnc(-c3ccncc3)o2)c(Cl)c1` [MMV011765], the EC50 under setting [3] is 1.87 µM and the EC50 under setting [1] was 0.27 µM. Moreover, under setting [2], the IC50 is 0.27 µM.

Take `Cc1ccc2cc(C3NC(=O)c4ccccc4N3)c(Cl)nc2c1` (stereo not shown) [MMV019807]: under setting [1], the EC50 is 0.95 µM. Moreover, the IC50 under setting [2] was 1.66 µM.

As for `Cc1cc(Nc2ccncc2)n2nc(C)c(-c3ccccc3Cl)c2n1` [MMV016136], the EC50 under setting [1] is 0.69 µM. Also, the IC50 under setting [2] was 0.63 µM.

In the case of `COc1cc(OC)cc(C(=O)NCC2Cc3cc(Cl)cc(-c4ccncc4)c3O2)c1` (stereo not shown) [MMV007471], the EC50 under setting [3] was 0.37 µM. The half-maximal inhibitory concentration (IC50) under setting [2] was 0.58 µM.

With `c1ccc2c(c1)CN(CC1CC1)CC1(CCN(Cc3c[nH]c4cnccc34)CC1)O2` [MMV023183], under setting [1], the EC50 was 0.9 µM. The IC50 under setting [2] is 0.61 µM.

With `CC1CCCN(C(=O)C(C)Nc2cc(Cl)ccc2N2CCOCC2)C1` (stereo not shown) [MMV020388], under setting [1], the EC50 is 0.32 µM. Also, the IC50 under setting [2] is 0.52 µM.

On to `Cc1cc(C)n(-c2ccc(NC(=O)C3CCN(Cc4cnc(C)s4)CC3)cc2)n1` [MMV007625], for which the EC50 under setting [3] was 0.81 µM. The IC50 under setting [2] was 0.78 µM.

For `Cc1nn(C)cc1C(C)Nc1nncc(-c2ccc(C(F)(F)F)cc2)n1` (stereo not shown) [MMV019993], under setting [1], the EC50 was 0.25 µM. Moreover, the IC50 under setting [2] is 0.12 µM.

Turning to `O=C(c1ccc(NCCO)cc1)C1C[C@H]1c1ccc(Cl)cc1` (stereo partly shown) [MMV676877], under setting [4], the IC50 was 0.66 µM.

`CCc1cc(=O)n(C)c(SC(C)C(=O)Nc2ccc(F)cc2)n1` (stereo not shown) [MMV688980]: under setting [5], the EC50 was 0.76 µM. Besides, the IC50 under setting [4] is 1.97 µM.

For `O=C(Nc1ccnc(-c2cccnc2)n1)c1cc(C(F)(F)F)cc(C(F)(F)F)c1` [MMV019838], the EC50 under setting [1] was 0.83 µM. Further, the half-inhibitory concentration (IC50) under setting [2] was 1.05 µM.

Consider `COc1ccc(Cl)cc1NC(=O)CN(C)C(=O)c1cnn(-c2ccccc2)n1` [MMV020710], for which, under setting [1], the EC50 was 0.23 µM. Also, the IC50 under setting [2] is 0.24 µM.

For the compound `COc1ccccc1CNC(=O)c1cc(C2CC2)nc2c1cnn2C(C)C` [MMV020517], the EC50 under setting [1] is 1.02 µM. Under setting [2], the IC50 was 0.94 µM.

As to `O=C(NC1CC1)c1ccc(CSCc2ccccc2Cl)o1` [MMV007803], under setting [3], the EC50 was 0.5 µM. For the same compound, under setting [2], the IC50 was 1.42 µM.

With `O=C(Nc1cccc(-c2ccc(NCCCN3CCCC3)nc2)c1)c1ccccc1` [MMV023953], the EC50 under setting [1] is 0.87 µM. Also, the IC50 under setting [2] is 0.85 µM.

Regarding `CCOc1ccccc1C(=O)Nc1cccc(-c2nc3ncccn3c2C)c1` [MMV019790], under setting [1], the EC50 was 0.85 µM. Also, under setting [2], the IC50 is 1.27 µM.

On to `CC(C)(C)c1cc(C(=O)Nc2cccnc2)cc(C(=O)Nc2cccnc2)c1` [MMV020982], for which the EC50 under setting [1] is 0.76 µM. Besides, the IC50 under setting [2] is 0.9 µM.

Take `CS(=O)(=O)c1cccc(-c2cnc3[nH]cc(-c4ccc(CCC(=O)O)cc4)c3c2)c1` [MMV026020]: the EC50 under setting [6] was 0.63 µM. The IC50 under setting [4] is 0.5 µM.

Regarding `CC(C)(C)CN1C(=O)C(c2ccccc2)(c2ccccc2)N=C1N` [MMV026550], the EC50 under setting [6] is 0.52 µM. Also, the IC50 under setting [4] is 0.8 µM.

In the case of `CNC(=O)c1cc(S(=O)(=O)N2CCN(c3ccccn3)CC2)cs1` [MMV020136], under setting [1], the EC50 is 0.67 µM. For the same compound, under setting [2], the IC50 was 1.11 µM.

On to `CC(C)C(C(=O)Nc1ccc(S(=O)(=O)N(C)C)cc1)c1ccc(Cl)cc1` (stereo not shown) [MMV020391], for which, under setting [1], the EC50 was 0.94 µM. Besides, the IC50 under setting [2] was 0.93 µM.

`Cc1cc(Cl)c(S(=O)(=O)N2CCCC2)cc1OCC(=O)NC1CCCCC1` [MMV006833]: the EC50 under setting [3] was 0.1 µM. Also, under setting [2], the IC50 was 0.3 µM.

On to `Cc1ccc2[nH]c3c(NCCN(C)C)ncnc3c2c1` [MMV006372], for which the EC50 under setting [3] was 0.17 µM and the EC50 under setting [1] is 0.87 µM. The IC50 under setting [2] was 0.79 µM.

As for `CN1CCN(c2nccc3[nH]c(-c4cccc(F)c4)cc23)CC1` [MMV393144], the IC50 under setting [4] is 1.46 µM.

Regarding `Cc1cc2ccccc2n1CC(=O)N1CC(C(=O)N2CCCCC2)Oc2ccccc21` (stereo not shown) [MMV020520], under setting [1], the EC50 was 0.9 µM. Moreover, the IC50 under setting [2] was 1.08 µM.

As for `CCn1cnc2c(Nc3cc(F)cc(F)c3)nc(C#N)nc21` [MMV676881], the IC50 under setting [4] was 0.9 µM.

Turning to `CCC(NC(=O)c1ccccc1NC(=O)c1ccc(C)cc1)C(=O)OC` (stereo not shown) [MMV019551], the EC50 under setting [1] is 0.76 µM. Moreover, the IC50 under setting [2] was 0.16 µM.

Take `CCCS(=O)(=O)N1CCC(CO)(Cc2ccccc2C(F)(F)F)CC1` [MMV001059]: the EC50 runs as follows: under setting [3], 1.25 µM; (St Jude, read-out: St JUDE (ref 95) EC50) 3.37 µM; under setting [1], 0.89 µM. Besides, the IC50 under setting [2] was 1.09 µM.

`COc1ccccc1C(C)NCC(=O)Nc1cc(C(F)(F)F)ccc1Cl` (stereo not shown) [MMV020321]: the EC50 under setting [1] was 0.78 µM. Also, the IC50 under setting [2] is 1.38 µM.

As to `O=C(Nc1cnc2ccccc2c1)c1cccc(-n2cnnn2)c1` [MMV084864], the EC50 under setting [5] is 0.17 µM. Besides, the IC50 under setting [4] was 0.54 µM.

For the compound `COc1cc2ncnc(NC3CCN(Cc4ccccc4)CC3)c2cc1OC` [MMV006741], the EC50 under setting [3] was 0.4 µM. In addition, under setting [2], the IC50 is 0.62 µM.

`CN1CCN(S(=O)(=O)c2ccc(-c3ccc4c(Nc5ccc6nn[nH]c6c5)ccnc4c3)cc2)CC1` [MMV687246]: the IC50 under setting [4] is 0.42 µM.

As for `COc1ccc(C2CC(c3cccs3)=NN2C(=O)c2ccco2)cc1OC` (stereo not shown) [MMV019234], the EC50 under setting [1] is 0.17 µM. In addition, the IC50 under setting [2] is 0.3 µM.

Turning to `COc1cccc2c(C)nc(N=C(N)N)nc12` [MMV000907], the EC50 under setting [3] was 0.29 µM. The IC50 under setting [2] is 1.06 µM.

Turning to `O=S(=O)(c1ccc(Cl)cc1)N1CCN(C(=S)NCc2ccco2)CC1` [MMV000858], the EC50 under setting [3] is 0.97 µM. For the same compound, the IC50 under setting [2] was 1.2 µM.

Turning to `Cc1cc(NCC(C)C)c2n[nH]c(-c3ccccc3)c2n1` [MMV021375], the EC50 under setting [1] is 0.74 µM. Besides, the IC50 under setting [2] is 1.4 µM.

As for `COc1ccc(-c2cncc3ccc(C(=O)NCCCn4ccnc4)nc23)cc1` [MMV020670], the EC50 under setting [1] was 0.75 µM. Further, the IC50 under setting [2] was 1.08 µM.

As to `OCc1ccc(-c2cncc(Nc3cccc(Cl)c3)c2)cc1` [MMV026468], the EC50 under setting [6] was 0.074 µM. Further, under setting [4], the IC50 is 0.0335 µM.

Regarding `O=C(C(Cc1c[nH]c2ccccc12)NS(=O)(=O)c1ccc(Cl)cc1)N1CCCCC1` (stereo not shown) [MMV085210], the EC50 under setting [5] is 0.72 µM. The IC50 under setting [4] was over 2 µM.

As for `CC(C(=O)N1CCCC1)N1CCN(S(=O)(=O)c2ccc(C(C)(C)C)cc2)CC1` (stereo not shown) [MMV020291], under setting [1], the EC50 was 0.64 µM. Besides, under setting [2], the IC50 was 0.9 µM.

With `CC(C)(C)c1cc(C(=O)N2CCN(c3nccnc3C#N)CC2)n(Cc2ccccc2)n1` [MMV023949], the EC50 under setting [1] was 0.76 µM. For the same compound, the IC50 under setting [2] was 0.6 µM.

Turning to `Cc1noc(C)c1C(=O)N1CCCC(c2[nH]c3c(C)cccc3c2-c2ccncc2)C1` (stereo not shown) [MMV020623], the EC50 under setting [1] is 0.84 µM. Moreover, the IC50 under setting [2] was 0.94 µM.

On to `CC(=O)Nc1ccc(NC(=O)c2cc(-c3cc(Cl)ccc3O)[nH]n2)cc1` [MMV676380], for which the EC50 under setting [6] was 0.18 µM. In addition, the IC50 under setting [4] was 0.35 µM.
